The values below come from patent publication US11077100B2, “Tetrahydroquinoline derivatives as P2X7 receptor antagonists” (RaQualia Pharma Inc., priority 2017, dated 2021).

For assay [1], the target named is human P2X7 (Homo sapiens (Human), UniProt Q99572). Briefly: Human P2X7 functional assay (Ca2+ influx, Fluo-4, FDSS). It counts as cell-based. Particulars: antagonistic activity with respect to the human P2X7 receptor; BzATP final concentration 80 microM. The procedure, abridged:
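Ca2+ influx was triggered with BzATP (80 μM final) after a 10-min room-temperature compound preincubation and monitored with Fluo-4 (ex 480/em 540 nm) on FDSS. The cells were HEK293 stably carrying FLAG-tagged human P2X7. Duplicate-averaged 7-point dose-responses gave IC50s.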

Assay [2] deals with rat P2X7 (Rattus norvegicus (Rat), UniProt Q64663). Briefly: Rat P2X7 functional assay (Ca2+ influx, Fluo-4, FDSS). It is filed as cell-based. Particulars: HEK293 cells stably expressing rat P2X7; BzATP final 10 microM; 7-point dose-response; read-out: Antagonistic activities with respect to the rat P2X7 receptor (IC50). A digest of the protocol: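 IC50 derived from 7-point dose-response in duplicate, measuring inhibition of BzATP-evoked (final 10 microM) intracellular Ca2+ increase by Fluo-4 fluorescence on FDSS. Rat P2X7-HEK293 cells were exposed to compound for 10 min in the dark beforehand.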
rat P2X7, sequence (Q64663 whole entry): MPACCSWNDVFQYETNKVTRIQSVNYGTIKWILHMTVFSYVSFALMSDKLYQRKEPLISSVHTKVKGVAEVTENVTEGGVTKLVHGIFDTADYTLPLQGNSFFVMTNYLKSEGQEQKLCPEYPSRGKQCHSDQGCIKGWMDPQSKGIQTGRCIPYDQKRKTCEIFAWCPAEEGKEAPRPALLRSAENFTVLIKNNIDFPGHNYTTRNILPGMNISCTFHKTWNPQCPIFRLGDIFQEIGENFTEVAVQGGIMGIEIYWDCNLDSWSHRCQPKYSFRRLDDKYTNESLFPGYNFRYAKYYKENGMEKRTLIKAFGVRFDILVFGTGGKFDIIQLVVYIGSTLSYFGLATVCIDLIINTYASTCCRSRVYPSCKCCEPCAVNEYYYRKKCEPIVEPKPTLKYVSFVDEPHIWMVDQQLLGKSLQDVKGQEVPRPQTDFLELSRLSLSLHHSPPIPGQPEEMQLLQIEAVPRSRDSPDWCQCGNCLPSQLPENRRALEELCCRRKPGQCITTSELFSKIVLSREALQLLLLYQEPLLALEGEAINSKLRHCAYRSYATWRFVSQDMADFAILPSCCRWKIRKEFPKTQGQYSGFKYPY

human P2X7, sequence (Q99572 whole entry): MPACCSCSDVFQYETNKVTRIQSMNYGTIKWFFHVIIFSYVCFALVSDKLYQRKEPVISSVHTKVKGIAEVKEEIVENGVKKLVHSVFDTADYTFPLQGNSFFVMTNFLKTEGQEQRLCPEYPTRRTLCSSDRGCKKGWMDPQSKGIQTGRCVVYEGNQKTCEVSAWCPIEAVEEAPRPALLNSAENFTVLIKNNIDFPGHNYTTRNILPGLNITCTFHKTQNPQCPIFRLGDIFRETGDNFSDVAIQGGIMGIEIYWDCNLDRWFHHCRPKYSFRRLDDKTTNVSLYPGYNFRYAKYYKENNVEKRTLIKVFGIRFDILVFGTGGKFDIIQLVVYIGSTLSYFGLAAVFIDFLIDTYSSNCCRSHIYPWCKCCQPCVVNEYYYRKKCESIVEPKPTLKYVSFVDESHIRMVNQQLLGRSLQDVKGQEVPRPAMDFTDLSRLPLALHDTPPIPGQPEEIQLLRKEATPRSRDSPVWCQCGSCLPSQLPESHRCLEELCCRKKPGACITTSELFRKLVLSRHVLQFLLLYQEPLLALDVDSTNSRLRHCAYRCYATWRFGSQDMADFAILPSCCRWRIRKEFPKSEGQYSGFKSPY

For `Cc1cc(Cl)cc(Cl)c1CNC(=O)C1(F)CCC(O)(CN(C)C)c2ncccc21` (stereo not drawn) [Example 47, N-(2,4-dichloro-6-meth-ylbenzyl)-8-((dimeth-ylamino)meth-yl)-5-fluoro-8-hydroxy-5,6,7,8-tetrahydroquinoline-5-carboxamide], the values for the half-inhibitory concentration (IC50) in assay [1] and in assay [2] were below 50 nM and below 1000 nM, respectively.

As for `NCC1(O)CCC(F)(C(=O)NCc2cccc(C(F)(F)F)c2Cl)c2cccnc21` (stereo not drawn) [Example 48, 8-(aminomethyl)-N-(2-chloro-3-(trifluoro-methyl)benzyl)-5-fluoro-8-hy-droxy-5,6,7,8-tetra-hydroquinoline-5-carboxamide], the half-maximal inhibitory concentration (IC50) (as a rule, the midpoint of a concentration-inhibition curve) in assay [1] is below 50 nM; in assay [2] it was below 1000 nM.

As for `CNCC1(O)CCC(F)(C(=O)NCc2cccc(C(F)(F)F)c2Cl)c2cccnc21` (stereo not drawn) [Example 49, N-(2-chloro-3-(trifluorometh-yl)benzyl)-5-fluoro-8-hydroxy-8-((methylamino)meth-yl)-5,6,7,8-tetrahydroquinoline-5-carboxamide], the IC50 is below 50 nM in assay [1] and below 1000 nM in assay [2].

For the compound `CN(C)CC1(O)CCC(F)(C(=O)NCc2cccc(C(F)(F)F)c2Cl)c2cccnc21` (stereo not drawn) [Example 50, N-(2-chloro-3-(trifluoro-methyl)benzyl)-8-((di-methylamino)methyl)-5-fluoro-8-hydroxy-5,6,7,8-tetrahydroquinoline-5-carboxamide], the IC50 in assay [1] is below 50 nM; in assay [2], below 1000 nM.

`CC1(O)CCC(F)(C(=O)NCc2cccc(C(F)(F)F)c2Cl)c2cccnc21` (stereo not drawn) [Example 58, N-(2-chloro-3-(trifluoro-methyl)benzyl)-5-fluoro-8-hydroxy-8-methyl-5,6,7,8-tetrahydro-quinoline-5-carboxamide]: the concentration for half-maximal inhibition (IC50) in assay [1] is below 50 nM; in assay [2] it was below 1000 nM.

For the compound `O=C(NCc1ccc(Cl)cc1Cl)[C@@H]1CC[C@H](O)c2ncccc21` [Example 66, (5R,8S)-N-(2,4-dichloro-benzyl)-8-hydroxy-5,6,7,8-tetrahydroquinoline-5-carboxamide], the IC50 in assay [1] was below 50 nM; in assay [2], below 1000 nM.

Regarding `O=C(NCc1ccc(F)cc1Cl)[C@H]1CC[C@H](O)c2ncccc21` [Example 67, (5S,8S)-N-(2-chloro-4-fluorobenzyl)-8-hydroxy-5,6,7,8-tetrahydroquinoline-5-carboxamide], the figures for the 50% inhibitory concentration (IC50) in assay [1] and in assay [2] were 101 to 300 nM and below 1000 nM, respectively.

On to `O=C(NCc1ccc(F)cc1Cl)[C@@H]1CC[C@H](O)c2ncccc21` [Example 68, (5R,8S)-N-(2-chloro-4-fluorobenzyl)-8-hydroxy-5,6,7,8-tetrahydroquinoline-5-carboxamide], for which the figures for the IC50 in assay [1] and in assay [2] were below 50 nM and below 1000 nM, respectively.

Turning to `O=C(NCc1c(F)cc(Cl)cc1Cl)[C@@H]1CC[C@H](O)c2ncccc21` [Example 70, (5R,8S)-N-(2,4-dichloro-6-fluorobenzyl)-8-hy-droxy-5,6,7,8-tetrahydro-quinoline-5-carboxamide], the figures for the IC50 in assay [1] and in assay [2] were below 50 nM and below 1000 nM, respectively.

`O=C(NCc1ccc(F)c(F)c1F)[C@@H]1CC[C@H](O)c2ncccc21` [Example 72, (5R,8S)-8-hydroxy-N-(2,3,4-trifluorobenzyl)-5,6,7,8-tetrahydroquinoline-5-carboxamide]: the IC50 was below 50 nM in assay [1] and below 1000 nM in assay [2].

Turning to `O=C(NCc1ccc(F)cc1F)[C@@H]1CC[C@H](O)c2ncccc21` [Example 74, (5R,8S)-N-(2,4-difluoro-benzyl)-8-hydroxy-5,6,7,8-tetrahydroquinoline-5-carboxamide], the IC50 in assay [1] is 101 to 300 nM; in assay [2] it was below 1000 nM.

With `O=C(NCc1ccc(F)cc1C(F)(F)F)[C@@H]1CC[C@H](O)c2ncccc21` [Example 76, (5R,8S)-N-(4-fluoro-2-(tri-fluromethyl)benzyl)-8-hydroxy-5,6,7,8-tetra-hydroquinoline-5-carboxamide], the IC50 was 50 to 100 nM in assay [1] and below 1000 nM in assay [2].

With `O=C(NCc1ccc(Cl)cc1F)[C@@H]1CC[C@H](O)c2ncccc21` [Example 78, (5R,8S)-N-(4-chloro-2-fluorobenzyl)-8-hydroxy-5,6,7,8-tetrahydroquinoline-5-carboxamide], the results for the IC50 in assay [1] and in assay [2] were below 50 nM and below 1000 nM, respectively.

For `O=C(NCc1ccc(Br)cc1F)[C@@H]1CC[C@H](O)c2ncccc21` [Example 80, (5R,8S)-N-(4-bromo-2-fluorobenzyl)-8-hydroxy-5,6,7,8-tetrahydroquinoline-5-carboxamide], the IC50 in assay [1] was 50 to 100 nM; in assay [2] it was below 1000 nM.

Consider `O=C(NCc1ccc(F)c(F)c1Cl)[C@H]1CC[C@H](O)c2ncccc21` [Example 81, (5S,8S)-N-(2-chloro-3,4-difluorobenzyl)-8-hy-droxy-5,6,7,8-tetrahydro-auinoline-5-carboxamide], for which the half-maximal inhibitory concentration (IC50) in assay [1] was below 50 nM; in assay [2] it was below 1000 nM.

On to `O=C(NCc1ccc(F)c(F)c1Cl)[C@@H]1CC[C@H](O)c2ncccc21` [Example 82, (5R,8S)-N-(2-chloro-3,4-difluorobenzyl)-8-hy-droxy-5,6,7,8-tetrahydro-quinoline-5-carboxamide], for which the half-maximal inhibitory concentration (IC50) is below 50 nM in assay [1] and below 1000 nM in assay [2].

As to `Cc1cc(Cl)cc(Cl)c1CNC(=O)[C@H]1C[C@H](O)c2ncccc21` [Example 83, (5S,7S)-N-(2,4-dichloro-6-methylbenzyl)-7-hy-droxy-5,7-dihydro-5H-cyclopenta[b]pyridin-5-carboxamide], the half-maximal inhibitory concentration (IC50) was 101 to 300 nM in assay [1] and below 1000 nM in assay [2].

As for `Cc1cc(Cl)cc(Cl)c1CNC(=O)[C@@H]1CC[C@@H](O)c2ncccc21` [Example 84, (5R,8R)-N-(2,4-dichloro-6-methylbenzyl)-8-hy-droxy-5,6,7,8-tetrahydro-quinoline-5-carboxamide], the IC50 in assay [1] was below 50 nM; in assay [2], below 1000 nM.

For the compound `Cc1cc(Cl)cc(Cl)c1CNC(=O)[C@H]1CC[C@@H](O)c2ncccc21` [Example 85, (5S,8R)-N-(2,4-dichloro-6-methylbenzyl)-8-hy-droxy-5,6,7,8-tetrahydro-quinoline-5-carboxamide], the concentration for half-maximal inhibition (IC50) in assay [1] was below 50 nM; in assay [2], below 1000 nM.

For the compound `O=C(NCc1ccc(Cl)cc1Cl)[C@@H]1CC[C@@H](O)c2ncccc21` [Example 87, (5R,8R)-N-(2,4-dichloro-benzyl)-8-hydroxy-5,6,7,8-tetrahydroquinoline-5-carboxamide], the IC50 was 50 to 100 nM in assay [1] and below 1000 nM in assay [2].

Take `O=C(NCc1ccc(Cl)cc1Cl)[C@H]1CC[C@@H](O)c2ncccc21` [Example 88, (5S,8R)-N-(2,4-dichloro-benzyl)-8-hydroxy-5,6,7,8-tetrahydroquinoline-5-carboxamide]: the concentration for half-maximal inhibition (IC50) in assay [1] is below 50 nM; in assay [2], below 1000 nM.

Take `O=C(NCc1ccc(F)cc1Cl)[C@@H]1CC[C@@H](O)c2ncccc21` [Example 89, (5R,8R)-N-(2-chloro-4-fluorobenzyl)-8-hydroxy-5,6,7,8-tetrahydroquinoline-5-carboxamide]: the IC50 is 101 to 300 nM in assay [1] and below 1000 nM in assay [2].

Turning to `Cc1cc(Cl)cc(Cl)c1CNC(=O)[C@@H]1C[C@@H](O)c2ncccc21` [Example 97, (5R,7R)-N-(2,4-dichloro-6-methylbenzyl)-7-hy-droxy-6,7-dihydro-5H-cyclopenta[b]pyridin-5-carboxamide], the IC50 in assay [1] was below 50 nM; in assay [2] it was below 1000 nM.

Turning to `Cc1cc(Cl)cc(Cl)c1CNC(=O)[C@]1(F)CC[C@@H](O)c2ncccc21` [Example 100, (5S,8R)-N-(2,4-dichloro-6-methylbenzyl)-5-fluoro-8-hydroxy-5,6,7,8-tetrahydroquinoline-5-carboxamide], the 50% inhibitory concentration (IC50) in assay [1] was below 50 nM; in assay [2], below 1000 nM.

Consider `O=C(NCc1cccc(C(F)(F)F)c1Cl)[C@]1(F)CC[C@@H](O)c2ncccc21` [Example 102, (5S,8R)-N-(2-chloro-3-(trifluoromethyl)benzyl)-5-fluoro-8-hydroxy-5,6,7,8-tetrahydroquinoline-5-carboxamide], for which the IC50 in assay [1] is below 50 nM; in assay [2] it was below 1000 nM.

With `O=C(NCc1c(Cl)cc(Cl)cc1CO)[C@]1(F)CC[C@@H](O)c2ncccc21` [Example 104], the IC50 in assay [1] was below 50 nM; in assay [2], below 1000 nM.

In the case of `O=C(NCc1ccc(Cl)cc1Cl)[C@]1(F)CC[C@@H](O)c2ncccc21` [Example 106, (5S,8R)-N-(2,4-dichlorobenzyl)-5-fluoro-8-hydroxy-5,6,7,8-tetrahydroquinoline-5-carboxamide], the results for the concentration for half-maximal inhibition (IC50) in assay [1] and in assay [2] were below 50 nM and below 1000 nM, respectively.

Consider `O=C(NCc1ccc(F)cc1Cl)[C@]1(F)CC[C@@H](O)c2ncccc21` [Example 107, (5S,8R)-N-(2-chloro-4-fluorobenzyl)-5-fluoro-8-hydroxy-5,6,7,8-tetrahydroquinoline-5-carboxamide], for which the results for the IC50 in assay [1] and in assay [2] were 101 to 300 nM and below 1000 nM, respectively.

With `O=C(NCc1ccc(F)c(F)c1F)[C@]1(F)CC[C@@H](O)c2ncccc21` [Example 108, (5S,8R)-5-fluoro-8-hydroxy-N-(2,3,4-trifluorobenzyl)-5,6,7,8-tetrahydroquinoline-5-carboxamide], the IC50 was 301 to 1000 nM in assay [1] and below 1000 nM in assay [2].

With `O=C(NCc1ccc(F)cc1C(F)(F)F)[C@]1(F)CC[C@@H](O)c2ncccc21` [Example 110, (5S,8R)-5-fluoro-N-(4-fluoro-2-(trifluoromethyl)benzyl)-8-hydroxy-5,6,7,8-tetrahydroquinoline-5-carboxamide], the IC50 is 301 to 1000 nM in assay [1] and below 1000 nM in assay [2].
